Source: US20060264419A1 (priority 2003, published 2006)

target: 5-HT2A receptors (Rattus norvegicus, UniProt P14842); assay: in-vitro affinity to 5-HT2A receptors, displacement of [3H]ketanserine (Example A1); type: binding; details: read-out: HT2A IC50
Excerpt: The 5-HT2A receptors are exposed both to [^3H]ketanserine (a substance which is known for its affinity to the receptor) and also to the test compound. The decrease in the affinity of [^3H]ketanserine to the receptor is an indication of the affinity of the test substance to the 5-HT2A receptor.

Chain of 5-HT2A receptors (P14842 whole entry): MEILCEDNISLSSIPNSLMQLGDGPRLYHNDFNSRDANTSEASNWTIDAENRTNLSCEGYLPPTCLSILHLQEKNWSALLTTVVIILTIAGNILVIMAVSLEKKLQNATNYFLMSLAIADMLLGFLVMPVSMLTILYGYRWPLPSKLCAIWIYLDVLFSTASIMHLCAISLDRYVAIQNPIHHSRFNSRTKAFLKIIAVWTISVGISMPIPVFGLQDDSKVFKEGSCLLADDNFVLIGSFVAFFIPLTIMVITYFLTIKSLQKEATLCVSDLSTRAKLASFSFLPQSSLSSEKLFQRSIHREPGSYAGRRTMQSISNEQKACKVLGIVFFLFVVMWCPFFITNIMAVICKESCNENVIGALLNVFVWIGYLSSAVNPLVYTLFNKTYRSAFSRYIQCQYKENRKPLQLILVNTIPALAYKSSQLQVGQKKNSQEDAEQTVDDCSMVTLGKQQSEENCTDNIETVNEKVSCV

IC50	Structure (SMILES)
130 nM	CC(=O)Nc1cccc(-c2ccc(-n3ncc(CN4CCN(C)CC4)c3-c3ccccc3F)cc2)c1 [Example 988, N-{4′-[5-(2-Fluorophenyl)-4-(4-methyl-piperazin-1-ylmethyl)pyrazol-1-yl]biphenyl-3-yl}acetamide]
170 nM	Fc1ccccc1-c1c(CN2CC=CCC2)cnn1-c1ccc(-c2ccccc2)cc1 [Example 998, 1-[1-Biphenyl-4-yl-5-(2-fluorophenyl)-1H-pyrazol-4-ylmethyl]-1,2,3,6-tetrahydro-pyridine]
360 nM	O=C(c1cnn(-c2ccc(-c3ccccc3)cc2)c1-c1ccccc1F)N1CCOCC1 [Example 1043, 1-[1-Biphenyl-4-yl-5-(2-fluorophenyl)-1H-pyrazol-4-yl]-1-morpholin-4-ylmethanone]
400 nM	CN1CCN(Cc2cnn(-c3ccc(-c4ccc(F)cc4)cc3)c2-c2cc(Cl)cc(Cl)c2)CC1 [Example 1052, 1-[5-(3,5-Dichlorophenyl)-1-(4′-fluoro-biphenyl-4-yl)-1H-pyrazol-4-ylmethyl]-4-methyl-piperazine]
140 nM	OCc1cnn(-c2ccc(-c3ccc(F)cc3)cc2)c1-c1cccc(Cl)c1 [Example 992, [5-(3-Chlorophenyl)-1-(4′-fluoro-biphenyl-4-yl)-1H-pyrazol-4-yl]methanol]
460 nM	CC(C)(C)OC(=O)N1CCC(NCc2cnn(-c3ccc(-c4ccccc4)cc3)c2-c2ccccc2F)C1 (stereo not shown) [Example 1056, tert-Butyl 3-{[1-biphenyl-4-yl-5-(2-fluoro-phenyl)-1H-pyrazol-4-ylmethyl]amino}pyrrolidine-1-carboxylate]
100 nM	O=C(CNCc1cnn(-c2ccc(-c3ccccc3)cc2)c1-c1ccccc1F)Nc1ccc([N+](=O)[O-])cc1 [Example 980, 2-{[1-Biphenyl-4-yl-5-(2-fluorophenyl)-1H-pyrazol-4-ylmethyl]amino}-N-(4-nitrophenyl)-acetamide]
200 nM	CCN1CCN(Cc2cnn(-c3ccc(-c4ccc(F)cc4)cc3)c2-c2ccc(OC)cc2)CC1 [Example 1011, 1-Ethyl-4-[1-(4′-fluorobiphenyl-4-yl)-5-(4-methoxyphenyl)-1H-pyrazol-4-ylmethyl]-piperazine]
37 nM	Cc1cccc(-c2c(CN3CCN(C)CC3)cnn2-c2ccc(-c3ccc(F)cc3)cc2)c1 [Example 940, 1-[1-(4′-Fluorobiphenyl-4-yl)-5-m-tolyl-1H-pyrazol-4-ylmethyl]-4-methylpiperazine]
140 nM	CN1CCN(Cc2cnn(-c3ccc(-c4cccc(C#N)c4)cc3)c2-c2ccccc2F)CC1 [Example 993, 4′-[5-(2-Fluorophenyl)-4-(4-methylpiperazin-1-ylmethyl)pyrazol-1-yl]biphenyl-3-carbonitrile]
66 nM	Fc1ccccc1-c1c(CN2CCC(Cc3cccnc3)CC2)cnn1-c1ccc(-c2ccccc2)cc1 [Example 962, 3-{1-[1-Biphenyl-4-yl-5-(2-fluoro-phenyl)-1H-pyrazol-4-ylmethyl}piperidin-4-ylmethyl]pyridine]
170 nM	CCOC(=O)N1CCC(N(C)Cc2cnn(-c3ccc(-c4ccccc4)cc3)c2-c2ccccc2F)CC1 [Example 999, Ethyl 4-{[1-biphenyl-4-yl-5-(2-fluorophenyl)-1H-pyrazol-4-ylmethyl]methylamino}piperidine-1-carboxylate]

Structure (SMILES)	IC50
Fc1ccccc1-c1c(CN2CCN(Cc3ccsc3)CC2)cnn1-c1ccc(-c2ccccc2)cc1 [Example 1047, 1-[1-Biphenyl-4-yl-5-(2-fluorophenyl)-1H-pyrazol-4-ylmethyl]-4-thiophen-3-ylmethyl-piperazine]	380 nM

same assay, conditions: target not given; description names affinity to 5-HT2A receptors; read-out: IC50

IC50	Structure (SMILES)
220 nM	NC(=O)C1CCCN1Cc1cnn(-c2ccc(-c3ccccc3F)nc2)c1-c1ccccc1F (stereo not shown) [(145), 1-{5-(2-Fluorophenyl)-1-[6-(2-fluorophenyl)pyridin-3-yl]-1H-pyrazol-4-ylmethyl}pyrrolidine-2-carboxamide]
75 nM	Fc1ccc(-c2ccc(-n3ncc(CN4CCCC4)c3-c3ccccc3F)cn2)cc1 [(142), 2-(4-Fluorophenyl)-5-[5-(2-fluorophenyl)-4-pyrrolidin-1-ylmethylpyrazol-1-yl]pyridine]
1400 nM	CC(=O)OCc1cnn(-c2ccc(-c3ccccc3)cc2)c1-c1ccccc1F [(22), 1-Biphenyl-4-yl-5-(2-fluorophenyl)-1H-pyrazol-4-ylmethyl acetate]
270 nM	CCN(CC)CC1CCCCN1Cc1cnn(-c2ccc(-c3ccccc3)cc2)c1-c1ccccc1F (stereo not shown) [(51), {1-[1-Biphenyl-4-yl-5-(2-fluorophenyl)-1H-pyrazol-4-ylmethyl]-piperidin-2-ylmethyl}diethylamine]
25 nM	CN1CCN(Cc2cnn(-c3ccc(-c4ccccc4F)cc3)c2-c2ccco2)CC1 [(103), 1-[1-(2′-Fluorobiphenyl-4-yl)-5-furan-2-yl-1H-pyrazol-4-ylmethyl]-4-methylpiperazine]
150 nM	Fc1ccccc1-c1c(CN2CCNCC2)cnn1-c1ccc(-c2ccccc2)nc1 [(56), 1-[5-(2-Fluorophenyl)-1-(6-phenylpyridin-3-yl)-1H-pyrazol-4-ylmethyl]piperazine]
170 nM	CCOC(=O)N1CCC(N(C)Cc2cnn(-c3ccc(-c4ccccc4)cc3)c2-c2ccccc2F)CC1 [(110), Ethyl 4-{[1-biphenyl-4-yl-5-(2-fluorophenyl)-1H-pyrazol-4-ylmethyl]methylamino}piperidine-1-carboxylate]
590 nM	Cc1nn(C)c(C)c1NCc1cnn(-c2ccc(-c3ccccc3)cc2)c1-c1ccccc1F [(187), [1-Biphenyl-4-yl-5-(2-fluorophenyl)-1H-pyrazol-4-ylmethyl]-(1,3,5-trimethyl-1H-pyrazol-4-yl)amine]
210 nM	COC(=O)CCNCc1cnn(-c2ccc(-c3ccccc3)cc2)c1-c1ccccc1F [(112), Methyl 3-{[1-biphenyl-4-yl-5-(2-fluorophenyl)-1H-pyrazol-4-ylmethyl]amino}propionate]

Structure (SMILES)	IC50
CC(C)c1ccc(-n2ncc(CN3CCN(C)CC3)c2-c2ccccc2F)cc1 [(114), 1-[5-(2-Fluorophenyl)-1-(4-isopropylphenyl)-1H-pyrazol-4-ylmethyl]-4-methylpiperazine]	120 nM
Fc1ccccc1-c1c(CN2CCCCC2)cnn1-c1ccc(-c2ccccc2)cc1 [(23), 1-[1-Biphenyl-4-yl-5-(2-fluorophenyl)-1H-pyrazol-4-ylmethyl]-piperidine]	30 nM
CN1CCN(Cc2cnn(-c3ccc(-c4ccccc4F)cc3)c2-c2ccccc2F)CC1 [(63), 1-[1-(2′-Fluorobiphenyl-4-yl)-5-(2-fluorophenyl)-1H-pyrazol-4-ylmethyl]-4-methylpiperazine]	93 nM
OCCNCc1cnn(-c2ccc(-c3ccccc3)cc2)c1-c1ccccc1F [(77), 2-{[1-Biphenyl-4-yl-5-(2-fluorophenyl)-1H-pyrazol-4-ylmethyl]-amino}ethanol]	5.2 nM
COCCCNCc1cnn(-c2ccc(-c3ccccc3)cc2)c1-c1ccccc1F [(26), [1-Biphenyl-4-yl-5-(2-fluorophenyl)-1H-pyrazol-4-ylmethyl]-(3-methoxypropyl)amine]	34 nM
COc1ccccc1-c1c(CN2CCN(C)CC2)cnn1-c1ccc(-c2cc(F)ccc2F)cc1 [(71), 1-[1-(2′,5′-Difluorobiphenyl-4-yl)-5-(2-methoxyphenyl)-1H-pyrazol-4-ylmethyl]-4-methylpiperazine]	77 nM
